US10328143B2, “Hemagglutinin-binding peptide” (priority 2014, dated 2019)

How the values were obtained:
[1] = system: highly pathogenic avian influenza virus H5N1 A/whooper swan/Hokkaido/1/08 (5×MLD50); design: species or system mice; settings: mouse, in vivo
[2] = system: influenza virus H5N1 Vac-3; format: cell-based; settings: for anti-viral effect compared with zanamivir (Relenza): 0.01, 0.1, 1 μM
[3] = system: highly pathogenic avian influenza virus H5N1: A/ws/Hokkaido/1/08 (clade 2.3), A/ws/Mongolia/3/05 (clade 2.2), A/Vietnam/UT3040/04 (clade 1); format: cell-based
[4] = system: influenza virus H2N2-Adachi strain; format: cell-based
[5] = system: influenza virus H1N1-pdm 2619; format: cell-based

Compound	lethality [1]	treatment effect [1]	anti-viral effect compared with positive control iHA-24 [2]	anti-viral effect compared with zanamivir (Relenza) [2]	lethal rate [1]	effect compared with iHA-24 [3]	effect compared with zanamivir [3]	anti-viral effect compared with zanamivir (Relenza) [4]	number of plaques [4]	anti-viral effect compared with zanamivir (Relenza) [5]
CC(=O)N[C@H]1[C@H]([C@H](O)[C@H](O)CO)OC(C(=O)O)=C[C@@H]1N=C(N)N [zanamivir]	a dead individual is found	no treatment effect is obtained	–	–	–	–	–	–	–	–
Cyclo(Ac-Trp-Ser-MePhe-MeGly-His-Val-His-Tyr-Ser-Val-MePhe-Asn-MeAla-Val-Cys)-amide [iHA-102]	–	–	markedly higher than that of the peptide iHA-24	comparable to that of zanamivir	–	–	–	–	–	–
Cyclo(Ac-Trp-Thr-MeGly-Asp-MePhe-MePhe-Ser-MeSer-His-Tyr-Thr-Val-Pro-Arg-Cys)-amide [iHA-100]	–	–	markedly higher than that of the peptide iHA-24	comparable to that of zanamivir	a decrease in lethal rate is observed	markedly higher than that of iHA-24	on the same level as that of zanamivir	comparable to that of zanamivir	dose-dependently decreased the number of plaques	comparable to that of zanamivir
Cyclo(Ac-Trp-Thr-MeGly-Thr-His-Val-Arg-Tyr-Thr-Val-MePhe-Asn-MeAla-Ser-Cys)-amide [iHA-103]	–	–	markedly higher than that of the peptide iHA-24	comparable to that of zanamivir	–	–	–	–	–	–
